Measured values published in patent US9232788B2, “Fumigation methods” (Honeywell International Inc., priority 2011, dated 2016).
Entries after “also recorded” stand apart in the source; their conditions may differ.

Experiments:
[1] = tested on: Abutilon theophrasti Medik. seeds; assay: Fumigant test on weed seeds in soil, seed germination count; format: in vivo; conditions: for Seeds Germinated Abutilon theophrastic Medik.: fourteen seeds in soil, two days treatment, counted after 10 days; for seed germination (in words): all experimental concentrations (80, 160, 440 ml)
Experimental: (§1) In particular, in 440 mL pressure vessels, fourteen seeds of Abutilon theophrasti Medik. and fifteen seeds of Lolium multiflorum Lam. were thoroughly mixed with 50 mL (approximately 30 grams) of soil and 6 mL of water. The filled vessels were kept at room temperature for 20-24 hr to allow the seeds to imbibe water before treatment. The vessels were sealed and evacuated, and then 80 ml, 160 ml and 440 ml respectively of gaseous 1225zc was added. The vessels were thoroughly mixed and placed horizontally on the laboratory bench at ambient temperature for two days. The contents of each bottle were transferred to a plastic sterile Petri dish containing 7 mL of water. The Petri dishes were sealed with parafilm and incubated in the laboratory at ambient temperature. After 10 days, the number of germinated seeds was counted.
The same experiment was performed as described in Example 1 except that hexafluoropropene (HFP) was used as the active fumigant composition.

[2] = Volatility of aqueous fumigant compositions with and without surfactant (weight loss); format: physicochemical; conditions: with Tween 80 nonionic surfactant versus without; 20° C., vented, weight loss every 30 seconds
Experimental: Experimentation was carried out to determine the volatility of aqueous fumigant compositions, both with and without inclusion of a surfactant. In each case, the fluorocarbon was placed in a chilled 500 ml Fischer Porter tube that was equipped with a vent to remove any gases. The vessel was cooled to 0° C. and was charged with varying amounts of water, fluorocarbon and surfactant. The temperature was equilibrated to 20° C. and the reactor was placed on a balance. The vent tube was opened and the weight loss was recorded every 30 seconds.
In analyzing the effects of adding surfactant to an aqueous solution of HFP, 10.11 grams of HFP was added to 39.71 grams of water. In a separate experiment, 9.83 grams of HFP and 4.03 grams of Tween™ 80 were added to 40.08 grams of water. FIG. 1 provides a graphical representation of the numerical data comparing the volatility of an aqueous solution of HFP, both with and without inclusion of the Tween™ 80 nonionic surfactant.
In analyzing the effects of adding surfactant to an aqueous solution of 1225zc, 10.78 grams of 1225zc were added to 39.69 grams of water. In a separate experiment, 10.70 grams of 1225zc and 4.08 grams of Tween™ 80 were added to 40.15 grams of water. […]

[3] = tested on: Lolium multiflorum Lam. seeds; assay: Fumigant test on weed seeds in soil, seed germination count; format: in vivo; conditions: for Seeds Germinated Loliium multiflorum Lam.: fifteen seeds in soil, two days treatment, counted after 10 days; for seed germination (in words): all experimental concentrations (80, 160, 440 ml)
Experimental: as §1, with “counted. […]” for “counted.”

[4] = 80 ml gaseous fumigant in 440 mL vessel
[5] = 160 ml gaseous fumigant in 440 mL vessel
[6] = 440 ml gaseous fumigant in 440 mL vessel

Compound: FC(F)=CC(F)(F)F [1225zc, 1,1,3,3,3-pentafluoropropene]
- Seeds Germinated Abutilon theophrastic Medik. [1, 4]: 0
- Seeds Germinated Abutilon theophrastic Medik. [1, 5]: 0
- Seeds Germinated Abutilon theophrastic Medik. [1, 6]: 0
- seed germination (in words) [1]: none
- seed germination (in words) ([1]; listed as 1125c): completely prevented seed germination
- retention of the fluorocarbon in aqueous solution [2]: longer retention
- Seeds Germinated Loliium multiflorum Lam. [3, 4]: 0
- Seeds Germinated Loliium multiflorum Lam. [3, 5]: 0
- Seeds Germinated Loliium multiflorum Lam. [3, 6]: 0
- seed germination (in words) [3]: none
- seed germination (in words) ([3]; listed as 1125c): completely prevented seed germination

Compound: FC(F)=C(F)C(F)(F)F [HFP, hexafluoropropene]
- Seeds Germinated Abutilon theophrastic Medik. [1, 4]: 0
- Seeds Germinated Abutilon theophrastic Medik. [1, 5]: 0
- Seeds Germinated Abutilon theophrastic Medik. [1, 6]: 0
- seed germination (in words) [1]: completely prevented seed germination; also recorded: no germination occurred
- retention of the fluorocarbon in aqueous solution [2]: longer retention
- Seeds Germinated Loliium multiflorum Lam. [3, 4]: 0
- Seeds Germinated Loliium multiflorum Lam. [3, 5]: 0
- Seeds Germinated Loliium multiflorum Lam. [3, 6]: 0
- seed germination (in words) [3]: completely prevented seed germination; also recorded: no germination occurred
